Data: patent publication US6858383B2, “Compositions and methods for the treatment and prevention of cardiovascular diseases and disorders, and for identifying agents therapeutic therefor” (Medlyte, Inc., priority 2000, dated 2005)

What was measured:
[1] = molecular target: tumor necrosis factor alpha (TNFα) released by cultured rat cardiomyocytes (rat) (UniProt P16599); test: cell-based or functional assay
[2] = system: Adult rat cardiomyocytes; test: Hypoxia-induced sphingosine (SPH) production/release in cultured cardiomyocytes, HPLC of extracted sphingolipids; assay type: cell-based
Procedure: Adult rat cardiomyocytes were subjected to hypoxic conditions as described above and assayed for their ability to produce sphingolipid bases involved in the sphingomyelin signal transduction cascade.
Cardiomyocytes were cultured on plastic dishes that were placed in a humidified modular incubator chamber (ICN Biomedicals, Aurora, Ohio) pressurized to 0.04-0.05 psi by the particular gas mixture used in the treatment. Warm (37° C.) Tyrode's solution containing 0.2 mM BSA, ampicillin ([…]), kanamycin (100 mg/mL) and fungizone (20 μg/mL) was gassed in a 50 mL sterile conical for 15 minutes with 95%N2/5% CO2 prior to adding the solution to the cultured cells. The pO2 was monitored by a Micro pO2 System oxygen electrode (Lasar Research Labs, Los Angeles, Calif.) and found to be 4.0 PPM for the duration of the hypoxia condition. […] The pH of control and experimental cell cultures was monitored with a micro pH electrode (Beetrode pH Electrodes, Sarasota, Fla.) and remained constant at pH=7.26+/−0.02 for normoxic cells and 7.15+/−0.03 for hypoxic cells throughout the experiment. […]
The HPLC analysis was performed using a Beckman (Fullerton, Calif.) System Gold 118 Solvent Module and 507e Autosampler. A Jasco (Easton, Md.) FP-920 Intelligent Fluorescence Detector was used with an excitation wavelength of 330 nm and emission wavelength of 455 nm. […]

[3] = Fate of 3H-SPH incubated in whole blood, TLC; assay type: in vitro ADME, human
Procedure: Experiments were carried out to determine the fate of any SPH that might be released from cells or platelets into the extracellular compartment. Whole blood samples were incubated in vitro for up to 15 hours with ^3H-SPH, followed by thin layer chromatography (TLC) to examine which, if any, of the known metabolic products of the sphingomyelin pathway were radiolabeled as a result of metabolism of radiolabeled SPH.

[4] = system: cultured cardiomyocytes; test: S-1-P applied to cultured cardiomyocytes: apoptosis and calcium deregulation; assay type: cell-based, rat; details: S-1-P treatment of cultured cardiomyocytes
From the text: Exogenously applied […] is capable of activating blood platelets (Yatomi et al., J. Biol. Chem. 272:5291-5297, 1997; Yatomi et al., Blood 86:193-202, 1995). […] The first is to act on the platelets to promote the clotting response and further exacerbate the ischemia. Secondly, the platelet-derived […] acts in a paracrine fashion on neighboring endothelial and myocardial cells to promote calcium deregulation and apoptosis. On the cardiomyocytes, the consequence is to promote calcium overload. The endothelial cell response is to promote vasoconstriction and further limit the blood supply through the coronary vasculature. […] Extracellular […] is the ligand for a novel class of G protein-coupled receptors (GPCRs). Such receptors were first described as an orphan GPCRs cloned from human umbilical vein endothelial cells (Hla et al., J. Biol. Chem. 265:9308-9313, 1990; Lynch et al., Trends Pharmacol. Sci. 20:473-475, 1999). […] However, cardiac tissues are composed of diverse cell types, including endothelial cells, which have high levels of EDG-1 expression (Hla et al., J. Biol. Chem. 265:9308-9313, 1990). […] Recently a EDG-1 gene and its protein expression were determined in primary cultures of neonatal rat cardiomyocytes and in adult rat ventricular tissue (Nakajima et al., Biophysical J. 78:319 A, 2000). […]

[5] = system: cultured cardiomyocytes; details: S-1-P applied to cultured cardiomyocytes; cited from earlier work
[6] = system: isolated perfused rat heart; test: Langendorff rat heart model of global ischemia and reperfusion; details: 0.1 mM gentamicin recirculated 30 min; 40 min global ischemia; 45 min reperfusion
Procedure: A rat model of ischemia and reperfusion was used to evaluate the therapeutic potential of a gentamicin, an amino glycoside that inhibits sphingomyelinase.
Gentamicin vehicle solution was prepared as follows. A stock solution of 0.1 M Gentamicin was prepared by adding 70 mg of Gentamicin Sulfate (Sigma, G1264) to 1 ml of KH Buffer. KH buffer (150 ml) was combined with 150 μl)l of the stock solution to yield a 0.1 mM solution.
The protocol used was essentially that described by Sakai et al. (A device for recording left ventricular contraction and electrocardiogram in nonworking isolated perfused rat heart, Jpn J Pharmacol 28:223-9, 1978), and Zelinski et al., (Phosphatidylcholine biosynthesis in isolated hamster heart, J Biol Chem. 255:11423-8, 1980) with the exception, in the latter instance, that rat studies were used in the experiments described herein instead of hamster hearts.
In brief, rats were anesthetized and their hearts were excised. The isolated hearts were cannulated and attached to Langendorff perfusion apparatus, and perfused with KH buffer. The hearts were allowed to stabilize for 5-10 min. […]
A small hole was cut in the left atrium of each animal to expose the mitral valve. […] Left ventricular pressure was measured and recorded using the MacLab program. […]
After about 45 min., the perfusate was turned off and the ventricular pressure was no longer recorded. […]

tumor necrosis factor alpha (TNFα) released by cultured rat cardiomyocytes (rat), sequence (P16599 80-235 limits assumed): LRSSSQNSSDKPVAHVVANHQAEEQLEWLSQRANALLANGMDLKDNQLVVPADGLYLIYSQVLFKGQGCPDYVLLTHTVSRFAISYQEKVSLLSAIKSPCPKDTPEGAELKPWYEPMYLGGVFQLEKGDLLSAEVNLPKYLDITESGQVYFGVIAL

TNFRII:Fc receptor fragment (from UniProt P20333 23-257) (Fc fusion)
SPH release from hypoxic cardiomyocytes after pretreatment with TNFRII:Fc [1]: 3 fold

C[N+](C)(C)C[C@H](O)CC(=O)[O-] [L-carnitine]
hypoxia-induced production of sphingosine ([2]; cellular model): blocks
amount of total SPH ([2]; pretreated 30 min prior to hypoxia (5 hours), TNFRII:Fc 0.5 ng/mL, L-carnitine 20 ng/mL, adult cardiomyocytes): significantly (p<0.01) reducing

CCCCCCCCCCCCC/C=C/[C@@H](O)[C@@H](N)COP(=O)(O)O [S-1-P, sphingosine-1-phosphate]
stability in whole blood ([3]; 15-hour time course): very stable
average calcium level combining both diastolic and systolic responses [4]: significantly increased
apoptosis of cultured cardiomyocytes [5]: resulted in apoptosis

CCCCCCCCCCCCC/C=C/[C@@H](O)[C@@H](N)CO [^3H-SPH, D(+)-erythro-2-amino-4-trans-octadecene-1,3-diol]
conversion to ceramide or sphingomyelin ([3]; whole blood in vitro, up to 15 hours): not converted
conversion of 3H-SPH to 3H-S-1-P ([3]; whole blood in vitro, within 20 minutes): 86%

gentamicin
ischemia and reperfusion injury (left ventricular pressure) [6]: mitigated
